Holding throughout (assay type): cell-based
For assay [1], the system named is C2C12 cells. Put plainly: Measurement of glucose absorption ability (3H-deoxy-glucose uptake with insulin). As to conditions: for Glucose absorption (100 uM) Aver.: 100 uM compound with 1 μM insulin, 24 hours, differentiated C2C12, higher value = stronger, more than 200% counts as glucose absorption ability. How it is done: (§1) 2 mM metformin was used as a comparative compound for each of the plates (control group).
C2C12 cells (ATCC: American Type Culture Collection), a muscle cell model, were induced to differentiate into muscle cells in 2% bovine fetal serum-containing media (DMEM (Gibco), FBS (Gibco)) for 6 days. The C2C12 cells which differentiated into muscle cells were transferred to serum-free low glucose media (DMEM (Gibco), FBS (Gibco)), treated with 100 μM of each of the compounds, and then cultured with 1 μM of insulin for 24 hours. After cultivation, the cells were treated with 1 μCi ^3H-deoxy-glucose (Amersham Pharmacia) and 10 μM deoxy-glucose (Sigma) at 37° C. for 15 minutes. The media were removed therefrom, and the cells were washed twice with PBS (phosphate buffered saline). The washed cells were treated with 0.1N NaOH and neutralized with 1N HCl. The content of glucose absorbed into the cells was measured with a liquid scintillation counter.
A higher measurement value means a stronger ability to reduce insulin resistance.

The subject of assay [2] is HepG2 cells. Put plainly: Measurement of triglyceride (triglyceride content in cell lysates, Amplex red). To be noted: HepG2; for Triglyceride (100 uM) Aver.: 100 uM compound; for Triglyceride (100 uM) Aver. / Triglyceride (500 uM) Aver.: 24 hours, lower value = stronger triglyceride synthesis inhibition; for Triglyceride (500 uM) Aver.: 500 uM compound. How it is done: as §1
HepG2 cells (ATCC: American Type Culture Collection) were cultured in 1% serum-containing media (DMEM (Gibco), FBS (Gibco)) for 24 hours, and then treated with 100 μM or 500 μM of each of the compounds prepared in Examples for 24 hours. Then, the cells were disrupted with a lysis solution (0.1 M potassium phosphate, pH 7.4, 0.05 M NaCl, 5 mM cholic acid, 0.1% Triton X-100). […] After completion of the reaction, the content of triglyceride formed in the cell lysates was measured at a wavelength of 560/590 nm (ex/em) using a fluorescence microscope.
A lower measurement value means an increased triglyceride synthesis inhibitory ability.

The test system of assay [3] is HepG2 cells. Put plainly: Measurement of gluconeogenesis inhibitory ability (14C-lactate, glucose formed in cells). How it is done: as §1
HepG2 cells (ATCC: American Type Culture Collection) were cultured in 10% serum-containing high glucose media, transferred to no serum-containing low glucose media (DMEM (Gibco), FBS (Gibco)), and then treated with 100 μM of each of the compounds for 24 hours. Then, the cells were treated with 0.5 μCi ^14C-lactate (Amersham Pharmacia) and 10 mM L-lactate (Sigma), and cultured for 4 hours. After cultivation, the media were removed therefrom, and the cells were washed with PBS, treated with 0.1N NaOH and kept at room temperature for 1 hour. Then, the cells were neutralized with 1N HCl, and the content of glucose formed in the cells was measured with a liquid scintillation counter.
A lower measurement value means an increased gluconeogenesis inhibitory ability.

Assay [4] has as its system HepG2 cells. Put plainly: Measurement of cholesterol synthesis inhibitory ability (cholesterol content in cell lysates, Amplex red). As to conditions: HepG2; for Cholesterol (100 uM) Aver.: 100 uM compound; for Cholesterol (100 uM) Aver. / Cholesterol (500 uM) Aver.: 24 hours, lower value = stronger cholesterol synthesis inhibition; for Cholesterol (500 uM) Aver.: 500 uM compound. How it is done: as §1
A cholesterol synthesis inhibitory ability, which is an important function of AMPK (AMP-activated protein kinase), was measured using HepG2 cells (ATCC: American Type Culture Collection) as a hepatic cell model according to the following procedure.
The hepatic cell model HepG2 cells were cultured in 1% serum-containing media (DMEM (Gibco), FBS (Gibco)) for 24 hours, and then treated with 100 μM or 500 μM of each of the compounds prepared in Examples for 24 hours. Then, the cells were disrupted with a lysis solution (0.1 M potassium phosphate, pH 7.4, 0.05 M NaCl, 5 mM cholic acid, 0.1% Triton X-100 (Sigma)). To the disrupted cells was added the same volume of a reaction solution (2 U/mL of a cholesterol oxidizing agent, 2 U/mL of a peroxidase, 0.2 U/mL of a cholesterol esterase, and 300 μM of Amplex red as a fluorescent factor (Molecular Probe)), which was allowed to react at 37° C. for 30 minutes. After completion of the reaction, the content of cholesterol formed in the cell lysates was measured at a wavelength of 560/590 nm (ex/em) using a fluorescence microscope.
A lower measurement value means an increased cholesterol synthesis inhibitory ability.

The mark [5] stands for this setting: 100 uM compound, 24 hours, HepG2, lower value = stronger gluconeogenesis inhibition.
[6] abbreviates: 100 μM compound vs 2 mM metformin, by comparison of used amounts.
Setting [7] is: Metformin 2 mM, control group of each plate.

“And” between values parts separate entries of the source, which are not always exact repeats. Identical values can stand only once.

For the compound `Cl.N=C(N)NC(=Nc1ccc(-c2ccccc2)cc1)NCCc1cccs1` [Example 35, N1-2-(thiophen-2-ylethyl)-N2-(4-phenylphenyl) biguanide hydrochloride], in assay [1], the “Glucose absorption (100 uM) Aver.” value is on record as 35.00%. In assay [2], the “Triglyceride (100 uM) Aver.” value is 18.94 and the “Triglyceride (500 uM) Aver.” value is 14.92. Also, the “Gluconeogenesis inhibition (100 uM) Aver.” value in assay [3] (setting [5]) turned out to be 109.62. In assay [4], the “Cholesterol (100 uM) Aver.” value came out at 28.27 and the “Cholesterol (500 uM) Aver.” value came out at 30.49.
As for “N1-2-(thiophen-2-ylethyl)-N2-t-butyl biguanide hydrochloride [Example 7]”, in assay [1], the “Glucose absorption (100 uM) Aver.” value is on record as 21.59%. For the same compound, in assay [2], the “Triglyceride (100 uM) Aver.” value came to 74.43 and the “Triglyceride (500 uM) Aver.” value was 16.49. In addition, the “Gluconeogenesis inhibition (100 uM) Aver.” value in assay [3] (setting [5]) is 39.98. For the same compound, in assay [4], the “Cholesterol (100 uM) Aver.” value was 42.51 and the “Cholesterol (500 uM) Aver.” value was found to be 2.79.
Regarding `COCCN=C(NCCc1cccs1)NC(=N)N.Cl` [Example 24, N1-2-(thiophen-2-ylethyl)-N2-methoxyethyl biguanide hydrochloride], the “Glucose absorption (100 uM) Aver.” value in assay [1] came out at 114.91%. Besides, in assay [2], the “Triglyceride (100 uM) Aver.” value amounted to 77.91 and the “Triglyceride (500 uM) Aver.” value is reported as 71.93. The “Gluconeogenesis inhibition (100 uM) Aver.” value in assay [3] (setting [5]) was 78.89. In assay [4], the “Cholesterol (100 uM) Aver.” value came to 92.58 and the “Cholesterol (500 uM) Aver.” value is recorded as 75.75.
Regarding `Cc1ccc(N=C(NCCc2cccs2)NC(=N)N)cc1.Cl` [Example 19, N1-2-(thiophen-2-ylethyl)-N2-(4-methylphenyl) biguanide hydrochloride], in assay [1], the “Glucose absorption (100 uM) Aver.” value was found to be 89.16%. Also, in assay [2], the “Triglyceride (100 uM) Aver.” value was 67.7 and the “Triglyceride (500 uM) Aver.” value amounted to 46.4. In addition, the “Gluconeogenesis inhibition (100 uM) Aver.” value in assay [3] (setting [5]) was determined as 74.32. In addition, in assay [4], the “Cholesterol (100 uM) Aver.” value came to 52.9 and the “Cholesterol (500 uM) Aver.” value worked out at 29.6.
With `CC(C)(C)c1ccc(N=C(NCCc2cccs2)NC(=N)N)cc1.Cl` [Example 28, N1-2-(thiophen-2-ylethyl)-N2-(4-t-butylphenyl) biguanide hydrochloride], the “Glucose absorption (100 uM) Aver.” value in assay [1] amounted to 4.29%. In addition, in assay [2], the “Triglyceride (100 uM) Aver.” value is on record as 15.55 and the “Triglyceride (500 uM) Aver.” value is given as 15.21. The “Gluconeogenesis inhibition (100 uM) Aver.” value in assay [3] (setting [5]) amounted to 2.57. In assay [4], the “Cholesterol (100 uM) Aver.” value is listed as 27.49 and the “Cholesterol (500 uM) Aver.” value worked out at 26.60.
For `Cl.N=C(N)NC(=NC1CCCC1)NCCc1cccs1` [Example 21, N1-2-(thiophen-2-ylethyl)-N2-cyclopentyl biguanide hydrochloride], in assay [1], the “Glucose absorption (100 uM) Aver.” value is listed as 174.8%. For the same compound, in assay [2], the “Triglyceride (100 uM) Aver.” value came out at 80.5 and the “Triglyceride (500 uM) Aver.” value stood at 85.6. Besides, in assay [3] (setting [5]), the “Gluconeogenesis inhibition (100 uM) Aver.” value is given as 97.66. Also, in assay [4], the “Cholesterol (100 uM) Aver.” value turned out to be 68.2 and the “Cholesterol (500 uM) Aver.” value is 45.8.
As for `CN=C(NCCc1cccs1)NC(=N)N.Cl` [Example 11, N1-2-(thiophen-2-ylethyl)-N2-methyl biguanide hydrochloride (isomer)], in assay [1], the “Glucose absorption (100 uM) Aver.” value stood at 321.21%. In addition, in assay [2], the “Triglyceride (100 uM) Aver.” value came to 74.98. Further, the “Gluconeogenesis inhibition (100 uM) Aver.” value in assay [3] (100 uM compound, 24 hours, HepG2, lower value = stronger gluconeogenesis inhibition, 100 µM) was found to be 25.03. Further, in assay [4], the “Cholesterol (100 uM) Aver.” value stood at 71.14.
As to `Cc1cccc(N=C(NCCc2cccs2)NC(=N)N)c1.Cl` [Example 27, N1-2-(thiophen-2-ylethyl)-N2-(3-methylphenyl) biguanide hydrochloride], in assay [1], the “Glucose absorption (100 uM) Aver.” value was determined as 12.91%. Further, in assay [2], the “Triglyceride (100 uM) Aver.” value turned out to be 46.45 and the “Triglyceride (500 uM) Aver.” value is 20.64. In assay [3] (setting [5]), the “Gluconeogenesis inhibition (100 uM) Aver.” value was found to be 56.42. In assay [4], the “Cholesterol (100 uM) Aver.” value is reported as 33.26 and the “Cholesterol (500 uM) Aver.” value worked out at 28.82.
Consider `Cl.N=C(N)NC(=Nc1cc(Cl)cc(Cl)c1)NCCc1cccs1` [Example 39, N1-2-(thiophen-2-ylethyl)-N2-(3,5-dichlorophenyl) biguanide hydrochloride], for which, in assay [1], the “Glucose absorption (100 uM) Aver.” value is on record as 188.26%. In addition, in assay [2], the “Triglyceride (100 uM) Aver.” value is reported as 73.50 and the “Triglyceride (500 uM) Aver.” value is reported as 72.66. The “Gluconeogenesis inhibition (100 uM) Aver.” value in assay [3] (setting [5]) is listed as 13.04. For the same compound, in assay [4], the “Cholesterol (100 uM) Aver.” value is given as 69.65 and the “Cholesterol (500 uM) Aver.” value is recorded as 61.03.
In the case of `CCN=C(NCCc1cccs1)NC(=N)N.Cl` [Example 1, N1-(thiophen-2-ylethyl)-N2-ethyl biguanide hydrochloride], the “glucose absorption effect relative to control group” value in assay [1] (setting [6]) is “about 20 times”. Besides, the “Glucose absorption (100 uM) Aver.” value in assay [1] is recorded as 322.7%. For the same compound, in assay [2], the “Triglyceride (100 uM) Aver.” value came out at 56.70 and the “Triglyceride (500 uM) Aver.” value was 54.57. In assay [3] (setting [6]), the “effect in inhibiting gluconeogenesis relative to control group” value is given as “at least 20 times”. Also, the activity at 100 µM in assay [3] (Homo sapiens, HepG2, 24 h, 100 uM compound, 24 hours, HepG2, lower value = stronger gluconeogenesis inhibition, read-out: Gluconeogenesis inhibition (100 uM) Aver.) is 48.9%. Also, in assay [4], the “Cholesterol (100 uM) Aver.” value came to 45.18 and the “Cholesterol (500 uM) Aver.” value is 30.51.
With `CN(C)C(=N)N=C(N)N` [Metformin, reference compound], the “Triglyceride Aver.” value in assay [2] (setting [7]) is 81.14 and 69.58 and 73.61 and 70.05 and 74.57. Besides, the “Gluconeogenesis inhibition Aver.” value in assay [3] (Metformin 2 mM, control group of each plate, HepG2) was 39.79 and 59.14 and 53.09 and 78.33 and 64.50. The “Cholesterol Aver.” value in assay [4] (setting [7]) is 65.31 and 74.50 and 85.91 and 70.69 and 73.31.
Regarding `Cl.N=C(N)NC(=Nc1ccc(Oc2ccccc2)cc1)NCCc1cccs1` [Example 36, N1-2-(thiophen-2-ylethyl)-N2-(4-phenoxyphenyl) biguanide hydrochloride], the “Glucose absorption (100 uM) Aver.” value in assay [1] worked out at 4.50%. Besides, in assay [2], the “Triglyceride (100 uM) Aver.” value was determined as 20.95 and the “Triglyceride (500 uM) Aver.” value was found to be 17.89. Also, the “Gluconeogenesis inhibition (100 uM) Aver.” value in assay [3] (setting [5]) amounted to 1.54. Further, in assay [4], the “Cholesterol (100 uM) Aver.” value was determined as 31.22 and the “Cholesterol (500 uM) Aver.” value is 34.74.
Regarding `CC(C)N=C(NCCc1cccs1)NC(=N)N.Cl` [Example 41, N1-2-(thiophen-2-ylethyl)-N2-isopropyl biguanide hydrochloride], in assay [1], the “Glucose absorption (100 uM) Aver.” value is 150.65%. Further, in assay [2], the “Triglyceride (100 uM) Aver.” value is on record as 93.91 and the “Triglyceride (500 uM) Aver.” value amounted to 81.62. In assay [3] (setting [5]), the “Gluconeogenesis inhibition (100 uM) Aver.” value was determined as 97.81. In assay [4], the “Cholesterol (100 uM) Aver.” value is recorded as 87.73 and the “Cholesterol (500 uM) Aver.” value is 75.54.
Take `CCCCN=C(NCCc1cccs1)NC(=N)N.Cl` [Example 25, N1-2-(thiophen-2-ylethyl)-N2-butyl biguanide hydrochloride]: the “Glucose absorption (100 uM) Aver.” value in assay [1] (hydrochloride) came to 2.76%. Besides, in assay [2] (hydrochloride), the “Triglyceride (100 uM) Aver.” value stood at 19.21 and the “Triglyceride (500 uM) Aver.” value turned out to be 17.02. Further, the “Gluconeogenesis inhibition (100 uM) Aver.” value in assay [3] (100 uM compound, 24 hours, HepG2, lower value = stronger gluconeogenesis inhibition, hydrochloride, 100 µM) was determined as 0.00. Further, in assay [4] (hydrochloride), the “Cholesterol (100 uM) Aver.” value is on record as 32.66 and the “Cholesterol (500 uM) Aver.” value stood at 19.87.
